From patent EP4079301A2, “COMPOSITIONS COMPRISING CANNABIDIOL AND, OPTIONALLY, BISABOLOL” (Symrise AG, priority 2021, dated 2022)

Legend:
Assay type in all cases: cell-based
Beta-endorphin = Beta-endorphin immunostaining of explant skin sections with image analysis; details: for Beta-endorphin in the epidermis (% surface), Average: image analysis
Description: (§1) On day 0 (D0), D1, D4, D5 and D7, the product P was topically applied on the basis of 2 mg/cm^2 (± 2µL per explant) and spread using a small spatula. […] The culture medium was half renewed (1 ml per well) on D1, D4, D5 and D7.
(§2) On day 0 (D0), the 3 explants from the batch T0 were collected and cut into 2 parts: half was fixed in formalin buffered solution and half was frozen at -80°C. On D5 and D9, the 3 explants of each batch were collected and processed in the same way than on day 0; the fourth explants were kept frozen at -80°C. The culture media of all explants were collected on D1, D4, D5, D7 (1 ml per explant) and on day 9 (2 ml per explant) and stored at -20°C for cortisol dosage.
(§3) After fixation for 24 hours in buffered formalin solution, the samples were dehydrated and impregnated in paraffin using a Leica PEARL dehydration automat. The samples were then paraffin-embedded using a Leica EG 1160 embedding station. 5-µm-thick sections of formol fixed paraffin-embedded (FFPE) skin sections were realized using a Leica RM 2125 Minot-type microtome, and the sections were then mounted on Superfrost® Plus glass slides. The frozen samples were cut into 7-µm-thick sections using a Leica CM 3050 cryostat. Sections were then mounted on Superfrost® plus silanized glass slides. Microscopical observations were realized using a Leica DMLB, a BX43 or BX63 Olympus microscope. Pictures were digitized with an Olympus DP72 or DP74 camera and the cellSens dimension data storing software (Olympus).
The immunostaining was assessed by microscopical observation and image analysis.
The images analyses were performed on all the images of each batch, according to the following method using cellSens software. The process is illustrated in Figure 2. For each batch of explants, the percentage of the region of interest covered by the staining (stained surface percentage) is determined by image analysis according to the previously described process.
The stained surface percentage (Surf%) for each treatment was compared to the untreated condition => P vs T.

Cortisol = Cortisol competitive ELISA on explant culture media; details: for Cortisol (ng/mL), Mean: released in BEM culture medium
Description: as §1, §2
Cortisol competitive assay was performed with human Cortisol ELISA kit (Enzo life sciences, ref. 25-0358-ADI-901-071). According to provider's guidelines, the culture media were diluted at 1/200 and the Cortisol standards were incubated for 2 hours at room temperature with a monoclonal antibody specific to Cortisol in a sample or an alkaline phosphatase molecule which has Cortisol covalently attached to it. […] The intensity of the bound yellow color is inversely proportional to the concentration of Cortisol in either standards or samples. Absorbance at 405 nm was measured using the M200Pro Tecan microplate reader and Magellan7 software. Cortisol assay was performed on culture BEM media on day 5 (pool of D1, D4, D5 culture media) and day 9 (pool of D7 and D9 culture media). The concentration of cortisol was expressed in ng/ml.

epidermis and dermis = test: Control of cell viability of skin explants (Masson's trichrome staining, Goldner variant); details: for Cell viability Dermis / Cell viability Epidermis: explants
Description: The explants were distributed into 3 batches as follows:
as §1, §2, §3
The observation of the cell viability of the epidermis and dermis was performed after staining of formalin-fixed paraffin- embedded (FFPE) skin sections according to Masson's trichrome, Goldner variant.

[1] = topical 2 mg/cm^2, day 5 (batch PJ5)
[2] = topical 2 mg/cm^2, day 9 (batch PJ9)

Structure (SMILES): C=C(C)[C@@H]1CCC(C)=C[C@H]1c1c(O)cc(CCCCC)cc1O [Cannabidiol]
- Effect of product application on beta-endorphin expression (microscopical observation of staining in the epidermis) (Beta-endorphin; D5, compared to the batch TJ5): slight increase
- increase of beta-endorphin expression (Beta-endorphin; D5, compared to the batch TJ5, image analysis): 24%
- Effect of product application on beta-endorphin expression (microscopical observation of staining in the epidermis) (Beta-endorphin; D9, compared to the batch TJ9): slight increase
- increase of beta-endorphin expression (Beta-endorphin; D9, compared to the batch TJ9, image analysis): 30%
- Beta-endorphin in the epidermis (% surface), Average (Beta-endorphin; day 5 (batch PJ5)): 33.1 % surface
- Beta-endorphin in the epidermis (% surface), Average (Beta-endorphin; day 9 (batch PJ9)): 12.5 % surface
- decrease of cortisol (Cortisol; D5, compared to the batch TJ5): 24%
- decrease of cortisol (Cortisol; D9, compared to the batch TJ9): 18%
- Cortisol (ng/mL), Mean (Cortisol; day 5 (pool of D1, D4, D5), batch PJ5): 246.5 ng/mL
- Cortisol (ng/mL), Mean (Cortisol; day 9 (pool of D7 and D9), batch PJ9): 255.1 ng/mL
- Effect of product application on cell viability (epidermis and dermis; D5, compared to the batch TJ5): no modification
- Effect of product application on cell viability (epidermis and dermis; D9, compared to the batch TJ9): no modification
- Cell viability Dermis (epidermis and dermis; [1]): good
- Cell viability Epidermis (epidermis and dermis; [1]): good
- Cell viability Dermis (epidermis and dermis; [2]): good
- Cell viability Epidermis (epidermis and dermis; [2]): fairly good
